Assay results taken from patent US9408393B2, “Bismuth-thiols as antiseptics for agricultural, industrial and other uses” (Microbion Corporation, priority 2010, dated 2016).
Like-named read-outs stand apart in the source and are kept apart here. One block for each compound: values may come before it.

Legend:
[1] = system: Klebsiella pneumoniae; assay: Single-point BisEDT-antibiotic combination FICI; format: cell-based; details: KP 1231
[2] = system: MRSA clinical isolates; assay: Broth dilution MIC in BHIG/X medium with subMIC BisEDT; format: cell-based, Staphylococcus aureus; details: for MIC: Staphylococcus aureus, MRSA, 12 MRSA clinical isolates, BHIG/X, mean ± SD, read-out: MIC
Method: (§1) Broth dilution antimicrobial susceptibility studies were performed against 12 MRSA strains using several antibiotics combined with subMIC levels of BisEDT (Table 18). Both the biofilm-prevention concentration (BPC) and the minimum inhibitory concentration (MIC) were determined in a special biofilm culture medium (BHIG/X). […] These strains were already sensitive to vancomycin, but were made considerably moreso in the presence of subMIC BisEDT.
In this particular study, the data indicated synergy between BisEDT and cefepime (FIC<0.5), with many of the isolates at the breakpoint for sensitivity.

[3] = system: Pseudomonas aeruginosa; assay: Single-point BisEDT-antibiotic combination FICI; format: cell-based; details: PA 1380
[4] = system: Acinetobacter baumanii; assay: Single-point BisEDT-antibiotic combination FICI; format: cell-based; details: Abau 2594
[5] = system: MRSA clinical isolates biofilm; assay: Biofilm-prevention concentration (BPC) in BHIG/X medium with subMIC BisEDT; format: cell-based, Staphylococcus aureus; details: 12 MRSA clinical isolates, mean ± SD
Method: as §1

[6] = system: Burkholderia cepacia; assay: Single-point BisEDT-antibiotic combination FICI; format: cell-based; details: Bcep 1756
[7] = system: P. aeruginosa; assay: Checkerboard broth microdilution MIC and FICI; format: cell-based, Pseudomonas aeruginosa; details: compound alone; for MIC: Pseudomonas aeruginosa, read-out: MIC (μg/mL) Alone
Method: The effects of combinations of microparticulate Bis-EDT and four Bis-EDT analogs prepared as described above, and other agents against representative strains of several Gram-negative pathogenic bacteria were tested. A modification of a common laboratory method was used to determine synergism (FICI≦0.5), enhancement (0.5<FICI≦1.0), antagonism (FICI>4.0) and indifference (1.0<FICI≦4.0) used fractional inhibitory concentrations (FICs) and FIC indices (FICI) (Eliopoulos G and R Moellering. 1991. Antimicrobial combinations. In Antibiotics in Laboratory Medicine, Third Edition, edited by V Lorian. Williams and Wilkins, Baltimore, Md., pp. 432-492; Odds, 2003 J. Antimicrob. Chemother. 52(1):1). The checkerboard technique was used to determine FIC indices and was employed in this study.
Stock solutions of all test articles were prepared at 40× the final target concentration in the appropriate solvent. […] The final drug concentrations in the FIC assay plates were set to bracket the MIC value of each agent for each test organism, unless the strain was totally resistant to the test agent. […] The test organisms were originally received from clinical sources, or from the American Type Culture Collection. Upon receipt, the isolates were streaked onto Tryptic Soy Agar II (TSA). Colonies were harvested from these plates and a cell suspension was prepared in an appropriate broth growth medium containing cryoprotectant. Aliquots were then frozen at −80° C. The frozen seeds of the organisms to be tested in a given assay were thawed, streaked for isolation onto TSA plates, and incubated at 35° C. All organisms were tested in Mueller Hinton II Broth (Becton Dickinson, Lot No. 9044411). The broth was prepared at 1.05× normal weight/volume to offset the 5% volume of the drugs in the final test plates.
Minimal Inhibitory Concentration (MIC) values were previously determined using the broth microdilution method for aerobic bacteria (Clinical and Laboratory Standards Institute (CLSI). Methods for Dilution Antimicrobial Susceptibility Tests for Bacteria That Grow Aerobically; Approved Standard—Eighth Edition. CLSI document M07-A8 [ISBN 1-56238-689-1]. Clinical and Laboratory Standards Institute, 940 West Valley Road, Suite 1400, Wayne, Pa. 19087-1898 USA, 2009.).
FIC values were determined using a broth microdilution method previously described (Sweeney et al., 2003 Antimicrob. Agents Chemother. 47(6):1902-1906). To prepare the test plates, automated liquid handlers (Multidrop 384, Labsystems, Helsinki, Finland; Biomek 2000 and Multimek 96, Beckman Coulter, Fullerton Calif.) were used to conduct serial dilutions and liquid transfers.
The appropriate wells of standard 96-well microdilution plates (Falcon 3918) were filled with 150 μL of the appropriate solvent in columns 2-12 using the Multidrop 384. Three hundred microliters of each secondary test drug was added to each well in Column 1 of the plates. These plates were used to prepare the drug “mother plates” which provided the serial drug dilutions for the drug combination plates. The Biomek 2000 was used to transfer 150 μL of each secondary drug solution (40×) from the wells in Column 1 of the mother plate and to make eleven 2-fold serial dilutions. Mother plates of Bis-EDT (and analogs) were serial diluted top to bottom by hand, using a multichannel pipette. Two mother plates, one for each secondary drug and one for Bis-EDT (or analogs), were combined to form a “checkerboard” pattern by transfer of equal volumes (using a multi-channel pipette) to the drug combination plate. Row H and Column 12 each contained serial dilutions of one of the agents alone for determination of the MIC.
The “daughter plates” were loaded with 180 μL of test medium using the Multidrop 384. Then, the Multimek 96 was used to transfer 10 μL of drug solution from each well of the drug combination mother plate to each corresponding well of the daughter plate in a single step.

[8] = system: lawn of MRSA (Methicillin-resistant S. aureus); assay: Antibiotic-soaked discs on bacterial lawn with and without BisEDT; format: cell-based, Staphylococcus aureus; details: antibiotic discs combined with BisEDT 0.05 μg/ml
Method: FIGS. 4A and 4B show the subinhibitory BisEDT reversing antibiotic-resistance to several antibiotics. Effects of antibiotics with and without BisEDT (0.05 μg/ml) on a lawn of MRSA (Methicillin-resistant S. aureus) is shown. […] [GM=gentamicin, CZ=cefazolin, FEP=cefepime, IPM=imipenim, SAM=ampicillin/sulbactam, LVX=levofloxacin.

[9] = system: Bukholderia multivorans; assay: Single-point BisEDT-antibiotic combination FICI; format: cell-based; details: Bmult 5665
[10] = system: MRSA clinical isolates; details: cited from earlier work; for MIC Standards, R (resistance): Standard MIC breakpoint for resistance; for MIC Standards, S (antibiotic sensitivity): Standard MIC breakpoint for sensitivity
[11] = system: Escherichia coli; assay: Single-point BisEDT-antibiotic combination FICI; format: cell-based
[12] = system: S. epidermidis biofilm; assay: Biofilm prevention concentration (BPC), BisEDT and antibiotics; format: cell-based, Staphylococcus epidermidis; details: 0.05 μg/ml BisEDT
Method: (§2) S. epidermidis grown in TSB+2% glucose in polystyrene plates for 48 h at 37° C. Gatifloxacin (GF), clindamycin (CM), minocycline (MC), gentamicin (GM), vancomycin (VM), cefazolin (CZ), nafcillin (NC), and rifampicin (RP). […]

[13] = system: S. epidermidis; assay: Growth inhibition (MIC) and MBC, BisEDT and antibiotics; format: cell-based, Staphylococcus epidermidis
Source text: Results are expressed as the mean change in MIC (dilution steps) with increasing BisEDT (n=3). See legend in FIG. 5 for antibiotic definitions.
The MIC change was most pronounced for clindamycin and gentamicin, followed by vancomycin, cefazolin, minocycline, gatifloxacin and nafcillin, with rifampicin unaffected.
Minimum bactericidal concentration (MBC) for most antibiotics tested against S. epidermidis decreased slightly with subMIC BisEDT. […] Clindamycin is a bacteriostatic agent, which explains its lack of bactericidal activity. Cefazolin resistance was reversed with respect to the MBC [Domenico et al., 2003]. These effects were additive.

[14] = system: S. epidermidis S2400-1 biofilm; assay: Biofilm prevention, BisEDT-antibiotic combinations; format: cell-based, Staphylococcus epidermidis
Method: as §2

[15] = system: S. epidermidis; assay: Broth dilution MIC/MBC, BT-antibiotic combinations; format: cell-based, Staphylococcus epidermidis; details: S. epidermidis S2400-1
Method: Materials & Methods. Susceptibility studies were performed by broth dilution in 96-well tissue culture plates (Nalge Nunc International, Denmark) in accordance with NCCLS protocols (National Committee for Clinical Laboratory Standards. (1997). Methods for Dilution Antimicrobial Susceptibility Tests for Bacteria that Grow Aerobically: Approved Standard M7-A2 and Informational Supplement M100-S10. NCCLS, Wayne, Pa., USA).
Briefly, overnight bacterial cultures were used to prepare 0.5 McFarland standard suspensions, which were further diluted 1:50 (˜2×10^6 cfu/mL) in cation-adjusted Mueller-Hinton broth medium (BBL, Cockeysville, Md., USA). BTs (prepared as described above) and antibiotics were added at incremental concentrations, keeping the final volume constant at 0.2 mL. Cultures were incubated for 24 h at 37° C. and turbidity was assessed by absorption at 630 nm using an ELISA plate reader (Biotek Instruments, Winooski, Vt., USA) according to the manufacturer's recommendations. […] Viable bacterial counts (cfu/mL) were determined by standard plating on nutrient agar.
The checkerboard method was used to assess the activity of antimicrobial combinations. The fractional inhibitory concentration index (FICI) and the fractional bactericidal concentration index (FBCI) were calculated, according to Eliopoulos et al. (Eliopoulos and Moellering, (1996) Antimicrobial combinations. In Antibiotics in Laboratory Medicine (Lorian, V., Ed.), pp. 330-96, Williams and Wilkins, Baltimore, Md., USA). Synergy was defined as an FICI or FBCI index of […], no interaction at >0.5-4 and antagonism at >4 (Odds, F C (2003) Synergy, antagonism, and what the chequerboard puts between them. Journal of Antimicrobial Chemotherapy 52:1). Synergy was also defined conventionally as ≧4-fold decrease in antibiotic concentration.

MIC ([2]; BisEDT 0 μg/mL): 45 ± 32 µg/mL | MIC ([2]; BisEDT 0.025 μg/mL): 32 ± 28 µg/mL | MIC ([2]; BisEDT 0.05 μg/mL): 37 ± 24 µg/mL | MIC ([2]; BisEDT 0.1 μg/mL): 9.3 ± 6.1 µg/mL | MIC (μg/mL) Alone ([7]; P. aeruginosa 103): 1 µg/mL | MIC (μg/mL) Alone ([7]; P. aeruginosa 1479): 8 µg/mL | MIC (μg/mL) Alone ([7]; P. aeruginosa 2566): 16 µg/mL | MIC ([7]; P. aeruginosa 103): 2 µg/mL | MIC ([7]; P. aeruginosa 1381): 32 µg/mL | MIC ([7]; P. aeruginosa 1384): 2 µg/mL | MIC ([7]; P. aeruginosa 1474): 2 µg/mL | MIC ([7]; P. aeruginosa 1479): 4 µg/mL | MIC ([7]; P. aeruginosa 2566): 8 µg/mL | MIC ([7]; P. aeruginosa 2568): 2 µg/mL
Structure (SMILES): CO/N=C(\C(=O)N[C@@H]1C(=O)N2C(C(=O)[O-])=C(C[N+]3(C)CCCC3)CS[C@H]12)c1csc(N)n1 [Cefepime]
FICI, single-point BisEDT-antibiotic combination [1]: 1.11 | Isolates in which BisEDT significantly enhanced inhibitory activity of cefepime ([2]; BisEDT at 0.1 μg/ml, 12 cefepime-resistant MRSA): 11 of 12 | FIC, BisEDT and cefepime ([2]; cefepime-resistant MRSA isolates): < 0.5 | FICI, single-point BisEDT-antibiotic combination [3]: 0.62 | FICI, single-point BisEDT-antibiotic combination [4]: 0.71 | BPC ([5]; BisEDT 0 μg/mL): 24 ± 37 µg/mL | BPC ([5]; BisEDT 0.025 μg/mL): 27 ± 28 µg/mL | BPC ([5]; BisEDT 0.05 μg/mL): 18 ± 16 µg/mL | BPC ([5]; BisEDT 0.1 μg/mL): 5.0 ± 7.3 µg/mL | FICI, single-point BisEDT-antibiotic combination [6]: 1.34 | Antibiotic action on MRSA lawn with subMIC BisEDT [8]: enhanced antibiotic action | FICI, single-point BisEDT-antibiotic combination [9]: 0.96 | MIC Standards, R (resistance) [10]: ≧32 μg/ml | MIC Standards, S (antibiotic sensitivity) [10]: ≦8 μg/ml | FICI, single-point BisEDT-antibiotic combination ([11]; EC 102): 0.87 | FICI, single-point BisEDT-antibiotic combination ([11]; EC 2232): 0.96

MIC ([2]; BisEDT 0 μg/mL): 93 ± 75 µg/mL | MIC ([2]; BisEDT 0.025 μg/mL): 99 ± 76 µg/mL | MIC ([2]; BisEDT 0.05 μg/mL): 90 ± 60 µg/mL | MIC ([2]; BisEDT 0.1 μg/mL): 45 ± 32 µg/mL | Δ (0.05 BE), MIC ([15]; 0.05 μg/ml BisEDT): 4.00 | MIC ([15]; BisEDT 0 μg/ml): 32 µg/mL | MIC ([15]; BisEDT 0.05 μg/ml): 8 µg/mL | MIC ([15]; BisEDT 0.1 μg/ml): 1 µg/mL
Structure (SMILES): Cc1nnc(SCC2=C(C(=O)O)N3C(=O)[C@@H](NC(=O)Cn4cnnn4)[C@H]3SC2)s1 [Cefazolin, cefazolin]
Change of biofilm prevention concentration (BPC) [12]: modest decreases | BPC ([5]; BisEDT 0 μg/mL): 109 ± 86 µg/mL | BPC ([5]; BisEDT 0.025 μg/mL): 76 ± 86 µg/mL | BPC ([5]; BisEDT 0.05 μg/mL): 76 ± 105 µg/mL | BPC ([5]; BisEDT 0.1 μg/mL): 34 ± 28 µg/mL | Reduction in MBC with subMIC BisEDT [13]: 4- to 5 fold | MIC change (growth inhibition) with BisEDT ([13]; 0.1 μg/ml (0.5 μM) BisEDT): resistance was reversed to clinically relevant levels | Antibiotic action on MRSA lawn with subMIC BisEDT [8]: enhanced antibiotic action | Δ (0.05 BE), biofilm prevention ([14]; 0.05 μg/ml BisEDT): 2.8 | Biofilm Prevention (antibiotic concentration) ([14]; BisEDT 0 μg/ml): 28 µg/mL | Biofilm Prevention (antibiotic concentration) ([14]; BisEDT 0.05 μg/ml): 10 µg/mL | Biofilm Prevention (antibiotic concentration) ([14]; BisEDT 0.1 μg/ml): 1 µg/mL | MIC Standards, R (resistance) [10]: ≧32 μg/ml | MIC Standards, S (antibiotic sensitivity) [10]: ≦8 μg/ml | Synergy, MBC [15]: + (Synergy was also defined conventionally as ≧4-fold decrease in antibiotic concentration) | Synergy, MIC [15]: + (Synergy was also defined conventionally as ≧4-fold decrease in antibiotic concentration) | Δ (0.1 BE), MBC ([15]; 0.1 μg/ml BisEDT): 4.80 | MBC ([15]; BisEDT 0.0 μg/ml): 48 µg/mL | MBC ([15]; BisEDT 0.1 μg/ml): 10 µg/mL
